Starred links: 1 amine or outer side, 2 acyl side, 3 side chain; linkers in the order of their positions; H or OH if unused. Positions of bridges follow the written chain, without caps; N, C: chain ends. Non-standard residues stand in square brackets, D forms with d. Residues, ends and D or L forms follow the SMILES beside them. *: point of attachment. hPhe(3-Cl-4-CF3) = N[C@@H](CCc1ccc(C(F)(F)F)c(Cl)c1)C(=O)O; NMeDab(N,N-(CH2CF2CH2)) = CN[C@@H](CCN1CC(F)(F)C1)C(=O)O; hPhe(3-F,4-CF3) = N[C@@H](CCc1ccc(C(F)(F)F)c(F)c1)C(=O)O; hPhe(4-CF3) = N[C@@H](CCc1ccc(C(F)(F)F)cc1)C(=O)O; NMePhe(4-Cl) = CN[C@@H](Cc1ccc(Cl)cc1)C(=O)O; X4 = O=C([C@H](Cc1cc(F)cc(Cl)c1)N[*:1])[*:2]; NMePhe(4-Me) = CN[C@@H](Cc1ccc(C)cc1)C(=O)O; NMeNle(6-CHF2) = CN[C@@H](CCCCC(F)F)C(=O)O; NMedβ3hAla = C[C@H](CC(=O)[*:2])N(C)[*:1]; hPhe(4-F) = N[C@@H](CCc1ccc(F)cc1)C(=O)O; Phe(3-I) = N[C@@H](Cc1cccc(I)c1)C(=O)O; Phe(2-F) = N[C@@H](Cc1ccccc1F)C(=O)O; NMe4Pal = CN[C@@H](Cc1ccncc1)C(=O)O; NMeCha = CN[C@@H](CC1CCCCC1)C(=O)O; NMeChg = CN[C@H](C(=O)O)C1CCCCC1; NMeF = CN[C@@H](Cc1ccccc1)C(=O)O; NMeD = CN[C@@H](CC(=O)O)C(=O)O; NMeL = CN[C@@H](CC(C)C)C(=O)O; NMeV = CN[C@H](C(=O)O)C(C)C; d(β3hA) = C[C@@H](N)CC(=O)O; Pip = O=C(O)[C@@H]1CCCCN1; NMeA = CN[C@@H](C)C(=O)O; NMeAib = CNC(C)(C)C(=O)O; Piperidide = C1CCN(*)CC1; Pyrrolidide = C1CCN(*)C1; Ac5c = NC1(C(=O)O)CCCC1; Aze = O=C(O)[C@@H]1CCN1; Aib = CC(C)(N)C(=O)O; Sar = CNCC(=O)O
The compounds below were run against T1, Kras and SOS1 (biotin-tagged human Kras loaded with GDP, His-tagged human SOS1) (Homo sapiens, UniProt P01116, G12D) (assay: Protein-protein interaction inhibition between Kras and SOS1 (KrasGl2D-SOS PPI) using AlphaScreen). Conditions: AlphaScreen; biotin-tagged human Kras loaded with GDP, His-tagged human SOS1; read-out: KRAS G12D-SOS PPI IC50.
T1 construct: made in house; host or cells: E. coli (stated for Kras only)
T1 sequence (P01116 1-188 isoform P01116-2 G12D): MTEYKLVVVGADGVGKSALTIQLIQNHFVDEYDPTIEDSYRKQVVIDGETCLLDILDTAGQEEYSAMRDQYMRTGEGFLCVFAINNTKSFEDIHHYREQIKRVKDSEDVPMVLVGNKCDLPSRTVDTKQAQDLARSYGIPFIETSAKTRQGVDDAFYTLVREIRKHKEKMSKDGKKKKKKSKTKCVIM
Format: binding
Procedure, shortened: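 Donor beads (nickel) hold His-SOS1; acceptor beads (streptavidin) hold biotin-Kras bound to GDP. Signal measured at 520-620 nm following 680 nm excitation.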
Work on `CC[C@H](C)[C@@H]1NC(=O)[C@H](CC(C)C)N(C)C(=O)C[C@@H](C(=O)N2CCCCC2)N(C)C(=O)[C@H](CC(C)C)NC(=O)C(C)(C)N(C)C(=O)[C@H](Cc2ccccc2F)NC(=O)[C@H](Cc2cccc(I)c2)NC(=O)CN(C)C(=O)[C@H](Cc2ccc(C)cc2)N(C)C(=O)[C@@H]2CCN2C(=O)CN(C)C1=O` [Compound 638] ([NMeL]I[Sar][Aze][NMePhe(4-Me)][Sar][Phe(3-I)][Phe(2-F)][NMeAib]L[NMeD]-Piperidide; lactam N-11) yielded an IC50 of 45 nM.
In the case of `CC[C@H](C)[C@@H]1NC(=O)[C@H](CC(C)C)N(C)C(=O)C[C@@H](C)NC(=O)[C@H](C(C)C)N(C)C(=O)C(C)(C)NC(=O)[C@@H]2CCCN2C(=O)[C@H](CCc2ccc(C(F)(F)F)c(Cl)c2)NC(=O)CN(C)C(=O)[C@H](CC2CCCCC2)N(C)C(=O)CN(C)C(=O)CN(C)C1=O` [Compound 641] (cyclo([Aib][NMeV][d(β3hA)][NMeL]I[Sar][Sar][NMeCha][Sar][hPhe(3-Cl-4-CF3)]P)), the IC50 is reported as 18 nM.
In the case of `CC[C@H](C)[C@@H]1NC(=O)[C@H](C(C)C)N(C)C(=O)C[C@@H](C)NC(=O)[C@H](CC(C)C)N(C)C(=O)C2(CCCC2)NC(=O)[C@H](CC(C)C)N(C)C(=O)[C@H](CCc2ccc(C(F)(F)F)cc2)NC(=O)CN(C)C(=O)[C@H](Cc2ccc(Cl)cc2)N(C)C(=O)[C@@H]2CCN2C(=O)CN(C)C1=O` [Compound 645] (cyclo([Ac5c][NMeL][d(β3hA)][NMeV]I[Sar][Aze][NMePhe(4-Cl)][Sar][hPhe(4-CF3)][NMeL])), the IC50 is reported as 58 nM.
Compound `CC[C@H](C)[C@@H]1NC(=O)[C@H](C)N(C)C(=O)C[C@@H](C(=O)N2CCCC2)NC(=O)[C@H](CC(C)C)N(C)C(=O)[C@H](Cc2ccccc2)N(C)C(=O)[C@H](CC(C)C)NC(=O)[C@H](CCc2ccc(F)cc2)NC(=O)CN(C)C(=O)[C@H](Cc2ccc(Cl)cc2)N(C)C(=O)CN(C)C(=O)CN(C)C1=O` [Compound 646] ([NMeA]I[Sar][Sar][NMePhe(4-Cl)][Sar][hPhe(4-F)]L[NMeF][NMeL]D-Pyrrolidide; lactam N-11) has an IC50 of 120 nM.
`CC[C@H](C)[C@@H]1NC(=O)[C@@H]2CCCCN2C(=O)C[C@@H](C)N(C)C(=O)[C@H](CC(C)C)NC(=O)C(C)(C)N(C)C(=O)[C@H](CC(C)C)NC(=O)[C@H](CCc2ccc(C(F)(F)F)c(F)c2)NC(=O)CN(C)C(=O)[C@H](CC2CCCCC2)N(C)C(=O)CN(C)C(=O)CN(C)C1=O` [Compound 649] (cyclo(I[Sar][Sar][NMeCha][Sar][hPhe(3-F,4-CF3)]L[NMeAib]L[NMedβ3hAla][Pip])) gave an IC50 of 360 nM.
Compound `CC[C@H](C)[C@@H]1NC(=O)[C@H](CC(C)C)N(C)C(=O)C[C@@H](C(=O)N2CCCCC2)N(C)C(=O)[C@H](CCCCC(F)F)N(C)C(=O)C2(CCCC2)NC(=O)[C@@H]2CCCN2C(=O)[C@H](CCc2ccc(C(F)(F)F)c(Cl)c2)NC(=O)CN(C)C(=O)[C@H](CC2CCCCC2)N(C)C(=O)CN(C)C(=O)CN(C)C1=O` [Compound 653] ([NMeL]I[Sar][Sar][NMeCha][Sar][hPhe(3-Cl-4-CF3)]P[Ac5c][NMeNle(6-CHF2)][NMeD]-Piperidide; lactam N-11) has an IC50 of 44 nM.
With `CC[C@H](C)[C@@H]1NC(=O)[C@H](C)N(C)C(=O)C[C@@H](C)NC(=O)[C@H](CC(C)C)N(C)C(=O)[C@H](Cc2ccccc2)N(C)C(=O)[C@@H]2CCN2C(=O)[C@H](CCc2ccc(C(F)(F)F)cc2)NC(=O)CN(C)C(=O)[C@H](Cc2ccc(Cl)cc2)N(C)C(=O)CN(C)C(=O)CN(C)C1=O` [Compound 654] (cyclo([Aze][NMeF][NMeL][d(β3hA)][NMeA]I[Sar][Sar][NMePhe(4-Cl)][Sar][hPhe(4-CF3)])) the IC50 was 110 nM.
`CC[C@H](C)[C@@H]1NC(=O)[C@H](C)N(C)C(=O)C[C@@H](C(=O)N2CCCCC2)N(C)C(=O)[C@H](C(C)C)N(C)C(=O)[C@H](COC)NC(=O)[C@H](CCN2CC(F)(F)C2)N(C)C(=O)[C@H](CCc2ccc(C(F)(F)F)c(Cl)c2)NC(=O)CN(C)C(=O)[C@H](CC2CCCCC2)N(C)C(=O)CN(C)C(=O)CN(C)C1=O` [Compound 655] ([NMeA]I[Sar][Sar][NMeCha][Sar][hPhe(3-Cl-4-CF3)][NMeDab(N,N-(CH2CF2CH2))]S(Me)[NMeV][NMeD]-Piperidide; lactam N-11) showed an IC50 of 4.9 nM.
For `CC[C@H](C)[C@@H]1NC(=O)[C@H](CC(C)C)N(C)C(=O)C[C@@H](C(=O)N2CCCCC2)N(C)C(=O)[C@H](C2CCCCC2)N(C)C(=O)C2(CCCC2)NC(=O)[C@H](Cc2ccncc2)N(C)C(=O)[C@H](CCc2ccc(C(F)(F)F)c(Cl)c2)NC(=O)CN(C)C(=O)[C@H](CC2CCCCC2)N(C)C(=O)[C@@H]2CCN2C(=O)[C@H](C)N(C)C1=O` [Compound 656] ([NMeL]I[NMeA][Aze][NMeCha][Sar][hPhe(3-Cl-4-CF3)][NMe4Pal][Ac5c][NMeChg][NMeD]-Piperidide; lactam N-11), the IC50 was 17 nM.
With `CC[C@H](C)[C@@H]1NC(=O)[C@H](C)N(C)C(=O)C[C@@H](C(=O)N2CCCC2)NC(=O)[C@H](CC(C)C)N(C)C(=O)[C@H](Cc2ccccc2)N(C)C(=O)[C@H](CC(C)C)NC(=O)[C@H](Cc2cc(F)cc(Cl)c2)NC(=O)CN(C)C(=O)[C@H](Cc2ccc(Cl)cc2)N(C)C(=O)CN(C)C(=O)CN(C)C1=O` [Compound 657] ([NMeA]I[Sar][Sar][NMePhe(4-Cl)][Sar][X4]L[NMeF][NMeL]D-Pyrrolidide; lactam N-11) the IC50 was 310 nM.
